Assay results: patent US9482923B2, “Colored composition and image display structure” (FUJIFILM CORPORATION, priority 2011, dated 2016)

Experiments:
Assay type in all cases: physicochemical
[1] = Measurement of viscosity of dye solutions in n-hexane (R-type viscometer); details: 20° C.; for Viscosity (5%): 5% by mass solution in n-hexane
[2] = Solubility of the dye in n-hexane; details: for Solubility (% by mass): in n-hexane at 25° C. and 0.1 MPa; for Solubility (in words): n-hexane
Experimental: 3. Solubility in n-Hexane
The solubility of each of the dyes in n-hexane (solvent) was determined as follows.
Each of the dyes to be measured was dissolved in n-hexane heated at 50° C., thereby preparing a saturated solution. The saturated solution obtained was then left in an environment of 25° C. and 0.1 MPa for 1 hour. The precipitated dye was filtered, and the precipitation amount was measured, from which the solubility (% by mass) of the dye in n-hexane at 25° C. and 0.1 MPa was calculated.

[3] = Measurement of relative dielectric constant of the dye (LCR meter, extrapolation); details: extrapolated from 5, 7.5 and 10% by mass n-hexane solutions, 20° C., 40% RH, 1 kHz
Experimental: 4. Measurement of Relative Dielectric Constant
Solutions of the dye in n-hexane having concentrations of 5% by mass, 7.5% by mass and 10% by mass, respectively, were prepared, and individually injected into glass cells each having transparent indium-tin-oxide electrodes and a cell gap of 10 μm. The electrical capacities of the resultant cells were measured at 20° C. and 40% RH using a type 2353 LCR meter (manufactured by NF Corporation) at a measurement frequency of 1 kHz. The electrical capacity of n-hexane was also measured as a control sample. The relative dielectric constant of the dye was calculated based on the extrapolation method using the dielectric constants of the above prepared dye solutions calculated from the their electric capacities.

[4] = Absorption maximum wavelength and absorption coefficient of colored composition (visible-light spectrophotometer); set-up: Absorption Coefficient (ε): unit not given here; details: n-hexane solution; for Absorption Coefficient (ε): calculated by Lambert-Beer law
Experimental: Each of the dyes shown above as Exemplary Compounds D-2, D-11, D-13, D-14, D-25, D-37, E-2, E-3, and E-7 was dissolved in a solvent (n-hexane) to make a 3% by mass solution, thereby preparing a colored composition (ink). Each of the colored compositions (inks) obtained was evaluated with respect to its color, absorption maximum wavelength (λmax), absorbance (abs), absorption coefficient (∈), viscosity, and relative dielectric constant, and solubility (% by mass) of each of the dyes in a solvent.
2. Absorption Maximum Wavelength, Absorbance, and Absorption Coefficient of Colored Composition
The absorption maximum wavelength (λmax) and the absorbance (abs) of the colored composition were measured using a visible-light spectrophotometer (trade name: UV-1800PC, manufactured by Shimadzu Corporation). The absorption coefficient (∈) was calculated based on the Lambert-Beer law.

Viscosity (5%) [1] | Viscosity (10%) ([1]; 10% by mass solution in n-hexane) | Solubility (% by mass) [2] | Relative Dielectric Constant [3] | Absorption Maximum Wavelength λmax [4] | Absorption Coefficient (ε) [4] | Solubility (in words) [2] | Compound
 |  | 0.015 % by mass |  |  |  | low solubility | Cc1cc(C=C2C(=O)ON=C2C(C)(C)C)c(C)n1-c1ccc(C(=O)O)cc1 [D-101, reference compound]
 |  | 0.008 % by mass |  |  |  | low solubility | COc1ccc(C2=NOC(=O)C2=Cc2ccc(N(CC(=O)O)CC(=O)O)cc2)cc1 [D-102, reference compound]
2.1 mPa · S |  | 6.5 % by mass | 9.5 | 515 nm | 5.10 × 10^4 |  | CCCCCCCCCCCCN(CCCCCCCCCCCC)c1ccc(C=CC=C2C(=O)ON=C2C(C)(C)C)c(C)c1 [E-2]
2.1 mPa · S |  | 7.2 % by mass | 9.0 | 530 nm | 5.20 × 10^4 |  | CCCCCCCCN(CCCCCCCC)c1ccc(C=CC=C2C(=O)ON=C2C(C)(C)C)c(OC)c1 [E-3]
2.3 mPa · S |  | 5.0 % by mass |  | 556 nm | 5.20 × 10^4 |  | CCCCCCCCCCCCN(CCCCCCCCCCCC)c1ccc(C=CC=CC=C2C(=O)ON=C2C)c(C)c1 [E-7]

The next lines start with the compound.

Compound | Viscosity (5%) [1] | Viscosity (10%) ([1]; 10% by mass solution in n-hexane) | Solubility (% by mass) [2] | Relative Dielectric Constant [3] | Absorption Maximum Wavelength λmax [4] | Absorption Coefficient (ε) [4] | Solubility (in words) [2]
CCCCCCCCCCCCN(CCCCCCCCCCCC)c1ccc(C=C2C(=O)ON=C2c2ccccc2)cc1 [D-2] | 2.1 mPa · S | 3.2 mPa · S | 10.5 % by mass | 8.2 | 468 nm | 4.50 × 10^4 | 
CCCCOC(=O)CN(CC(=O)OCCCC)c1ccc(C=C2C(=O)ON=C2C(C)(C)C)cc1 [D-11] | 2.1 mPa · S |  | 5.0 % by mass |  | 459 nm | 3.80 × 10^4 | 
CCCCCCCCCCCCn1cc(C=C2C(=O)ON=C2c2ccccc2)c2ccccc21 [D-25] | 2.1 mPa · S |  | 8.0 % by mass |  | 426 nm | 3.66 × 10^4 | 
CCCCCCN(CCCCCC)c1ccc(C=C2C(=O)ON=C2C(C)(C)C)c(C)c1 [D-37] |  |  | 1.2 % by mass |  | 465 nm | 4.10 × 10^4 | 
